Data reported in patent US20250179047A1, “5-[7-(3,4-DIHYDRO-1H-ISOQUINOLINE-2-CARBONYL)-1,2,3,4 TETRAHYDROISOQUINOLIN-6-YL]-1H-PYRROLE-3-CARBOXAMIDE DERIVATIVES, PHARMACEUTICAL COMPOSITIONS CONTAINING THEM AND THEIR USES AS PRO-APOPTOTIC AGENTS” (LES LABORATOIRES SERVIER, priority 2022, published 2025).
pKi: −log10 of the molar value.

Columns and labels:
BCL2 G101V [1] = assay: TR-FRET competitive binding assay, BCL2 G101V; parameters: species or system human; conditions: ratio Ki BCL2 G101V / Ki BCL2 WT
How it was run: (§1)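 Terbium-labelled N-terminal Halo-fusion BCL2 or BCLXL (E. coli), 0.5 nM, competed against fluorescein-labelled PUMA peptide (2 or 20 nM) for 2 h at 23° C in 50 mM Hepes pH 7.5, 150 mM NaCl, 5% DMSO. TR-FRET 520/495 nm ratio gave IC50 by four-parameter fit; Ki derived from IC50.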

BCL2 G101V [2] = biological target: BCL2 G101V (Homo sapiens, UniProt P10415, G101V); assay: TR-FRET competitive binding assay, BCL2 G101V; conditions: BCL2 G101V; Ki determined from IC50; read-out: TR_FRET EKI_Bcl2 G101V
How it was run: as §1

BCL2 D103Y = BCL2 D103Y (Homo sapiens, UniProt P10415, D103Y); assay: TR-FRET competitive binding assay, BCL2 D103Y; conditions: Ki determined from IC50, read-out: TR_FRET EKI_Bcl2 D103Y
How it was run: as §1

BCLXL WT = BCLXL WT (Homo sapiens (Human), UniProt Q07817); assay: TR-FRET competitive binding assay, BCLXL WT; conditions: for pKi: BCLXL WT, Ki determined from IC50, read-out: TR_FRET EKI BclxL; for TR_FRET EKI BCLxL/WT selectivty ratio: ratio Ki BCLxL / Ki BCL2 WT
Sequence of BCLXL WT (Q07817 other isoform, or with tags, fused parts or gaps): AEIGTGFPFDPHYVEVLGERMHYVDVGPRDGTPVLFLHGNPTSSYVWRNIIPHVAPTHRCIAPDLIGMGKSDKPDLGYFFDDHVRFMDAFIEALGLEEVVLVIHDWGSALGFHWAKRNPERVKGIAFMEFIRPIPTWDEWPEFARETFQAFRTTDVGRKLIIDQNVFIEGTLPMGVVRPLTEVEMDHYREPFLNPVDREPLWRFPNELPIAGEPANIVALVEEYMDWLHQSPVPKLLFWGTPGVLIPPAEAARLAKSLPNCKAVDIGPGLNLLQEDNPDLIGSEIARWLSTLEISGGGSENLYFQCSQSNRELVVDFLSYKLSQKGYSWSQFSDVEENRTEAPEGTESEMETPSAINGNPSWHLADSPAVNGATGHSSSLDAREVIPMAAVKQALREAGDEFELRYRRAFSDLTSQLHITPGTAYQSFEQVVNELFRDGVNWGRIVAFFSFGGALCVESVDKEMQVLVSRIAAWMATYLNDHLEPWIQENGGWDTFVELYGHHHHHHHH
How it was run: as §1

KMS-12-PE Bcl-2 WT = assay: In vitro cytotoxicity CellTiter-Glo 48 h, KMS-12-PE Bcl-2 WT; format: cell-based; conditions: Homo sapiens, KMS-12-PE, C50 = concentration needed to reach 50% of the cellular viability
How it was run: (§2)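 KMS-12-PE myeloma cells were lentivirally transduced with wild-type or G101V-mutant Bcl-2 and sorted by TagRFP. They were exposed to compounds as 11-point dose responses for 48 h at 37 °C, 5% CO2. Viability was read by CellTiter-Glo ATP luminescence, and C50 was the concentration giving 50% viability.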

KMS-12-PE Bcl-2 G101V = assay: In vitro cytotoxicity CellTiter-Glo 48 h, KMS-12-PE Bcl-2 G101V; format: cell-based; conditions: for Ratio (G101V/WT): C50 KMS-12-PE Bcl-2 G101V over C50 KMS-12-PE Bcl-2 WT; for IC50: Homo sapiens, KMS-12-PE, 48 h, CellTiter-Glo, C50 = concentration needed to reach 50% of the cellular viability
How it was run: as §2

BCL2 WT = BCL2 WT (Homo sapiens (Human), UniProt P10415); assay: TR-FRET competitive binding assay, BCL2 WT; conditions: Ki determined from IC50, read-out: TR_FRET EKI_Bcl2 WT
How it was run: as §1

SMILES | TR_FRET EKI G101V/WT selectivty ratio (BCL2 G101V [1]) | pKi (BCL2 G101V [2]) | pKi (BCL2 D103Y) | pKi (BCLXL WT) | TR_FRET EKI BCLxL/WT selectivty ratio (BCLXL WT) | IC50 (KMS-12-PE Bcl-2 WT) [µM] | Ratio (G101V/WT) (KMS-12-PE Bcl-2 G101V) | IC50 (KMS-12-PE Bcl-2 G101V) [µM] | pKi (BCL2 WT)
Cc1c(N(C(=O)c2cc(-c3cc4c(cc3C(=O)N3Cc5ccccc5C[C@H]3CN3CC[C@H](C)C3)CN(C(=O)Cc3ccc(OCCN5CCOCC5)cc3F)CC4)n(C)c2C)c2ccc(O)cc2)cc(C#N)n1C [Example 157, N-(5-cyano-1,2-dimethylpyrrol-3-yl)-5-[2-(2-{2-fluoro-4-[2-(morpholin-4-yl)ethoxy]phenyl}acetyl)-7-{[(3S)-3-{[(3S)-3-methylpyrrolidin-1-yl]methyl}-3,4-dihydro-1H-isoquinolin-2-yl]carbonyl}-3,4-dihydro-1H-isoquinolin-6-yl]-N-(4-hydroxyphenyl)-1,2-dimethylpyrrole-3-carboxamide] | 7.7 | 9.52 | 10.05 | 8.70 | 45.5 | 0.0171 | 5.5848 | 0.0955 | 10.40
Cc1c(C(=O)N(c2ccc(O)cc2)c2cc(C#N)n(C(F)F)c2C)cc(-c2cc3c(cc2C(=O)N2Cc4ccccc4C[C@H]2CN2CCCCC2)CN(C(=O)Cc2ccc(OCCN4CCC(F)CC4)cc2F)CC3)n1C [Example 158] | 9.4 | 9.05 | 9.33 | 8.27 | 54.0 | 0.0068 | 8.0412 | 0.0546 | 10.00
Cc1c(C(=O)N(c2ccc(O)cc2)c2cc(C#N)n(C(F)F)c2C)cc(-c2cc3c(cc2C(=O)N2Cc4ccccc4C[C@H]2CN2CCCCC2)CN(C(=O)Cc2ccc(OCCN4CCN(CCF)CC4)cc2F)CC3)n1C [Example 159, N-[5-cyano-1-(difluoromethyl)-2-methylpyrrol-3-yl]-5-{2-[2-(2-fluoro-4-{2-[4-(2-fluoroethyl)piperazin-1-yl]ethoxy}phenyl)acetyl]-7-{[(3S)-3-(piperidin-1-ylmethyl)-3,4-dihydro-1H-isoquinolin-2-yl]carbonyl}-3,4-dihydro-1H-isoquinolin-6-yl}-N-(4-hydroxyphenyl)-1,2-dimethylpyrrole-3-carboxamide] | 5.1 | 9.52 | 9.89 | 8.43 | 69.8 | 0.0079 | 4.9873 | 0.0392 | 10.30
Cc1c(C(=O)N(c2ccc(O)cc2)c2cc(C#N)n(C(F)F)c2C)cc(-c2cc3c(cc2C(=O)N2Cc4ccccc4C[C@H]2CN2CCCCC2)CN(C(=O)Cc2ccc(OCCN4CCN(C)CC4)cc2F)CC3)n1C [Example 160, N-[5-cyano-1-(difluoromethyl)-2-methylpyrrol-3-yl]-5-[2-(2-{2-fluoro-4-[2-(4-methylpiperazin-1-yl)ethoxy]phenyl}acetyl)-7-{[(3S)-3-(piperidin-1-ylmethyl)-3,4-dihydro-1H-isoquinolin-2-yl]carbonyl}-3,4-dihydro-1H-isoquinolin-6-yl]-N-(4-hydroxyphenyl)-1,2-dimethylpyrrole-3-carboxamide] | 6.3 | 9.70 | 9.74 | 8.82 | 55.6 | 0.0113 | 3.8053 | 0.043 | 10.52
Cc1c(N(C(=O)c2cc(-c3cc4c(cc3C(=O)N3Cc5ccccc5C[C@H]3CN3CCCCC3)CN(C(=O)Cc3ccc(OCCN5CCOCC5)cc3Cl)CC4)n(C)c2C)c2ccc(O)cc2)cc(C#N)n1C [Example 161, 5-[2-[2-[2-chloro-4-(2-morpholinoethoxy)phenyl]acetyl]-7-[(3S)-3-(1-piperidylmethyl)-3,4-dihydro-1H-isoquinoline-2-carbonyl]-3,4-dihydro-1H-isoquinolin-6-yl]-N-(5-cyano-1,2-dimethyl-pyrrol-3-yl)-N-(4-hydroxyphenyl)-1,2-dimethyl-pyrrole-3-carboxamide] | 7.0 | 9.52 | 9.85 | 8.54 | 61.7 | 0.0092 | 4.6212 | 0.0427 | 10.30
Cc1c(C(=O)N(c2ccc(O)cc2)c2cc(C#N)n(C(F)F)c2C)cc(-c2cc3c(cc2C(=O)N2Cc4ccccc4C[C@H]2CN2CCCCC2)CN(C(=O)Cc2ccc(OCCN(C)C4CC4)cc2)CC3)n1C [Example 163, N-[5-cyano-1-(difluoromethyl)-2-methyl-pyrrol-3-yl]-5-[2-[2-[4-[2-[cyclopropyl(methyl)amino]ethoxy]phenyl]acetyl]-7-[(3S)-3-(1-piperidylmethyl)-3,4-dihydro-1H-isoquinoline-2-carbonyl]-3,4-dihydro-1H-isoquinolin-6-yl]-N-(4-hydroxyphenyl)-1,2-dimethyl-pyrrole-3-carboxamide] | 5.3 | 9.10 | 9.19 | 8.08 | 51.9 | 0.01 | 5.97 | 0.0597 | 9.80
COc1ncc(N(C(=O)c2cc(-c3cc4c(cc3C(=O)N3Cc5ccccc5C[C@H]3CN3CCCCC3)CN(C(=O)Cc3ccc(OCCN5CCOCC5)cc3F)CC4)n(C)c2C)c2ccc(O)cc2)cc1F [Example 164, 5-[2-(2-{2-fluoro-4-[2-(morpholin-4-yl)ethoxy]phenyl}acetyl)-7-{[(3S)-3-(piperidin-1-ylmethyl)-3,4-dihydro-1H-isoquinolin-2-yl]carbonyl}-3,4-dihydro-1H-isoquinolin-6-yl]-N-(5-fluoro-6-methoxypyridin-3-yl)-N-(4-hydroxyphenyl)-1,2-dimethylpyrrole-3-carboxamide] | 7.5 | 9.22 | 9.89 | 8.03 | 120.8 | 0.0054 | 9.1529 | 0.0497 | 10.10
COc1ccc(N(C(=O)c2cc(-c3cc4c(cc3C(=O)N3Cc5ccccc5C[C@H]3CN3CCCCC3)CN(C(=O)Cc3ccc(OCCN5CCOCC5)cc3F)CC4)n(C)c2C)c2ccc(O)cc2)cn1 [Example 165, 5-[2-(2-{2-fluoro-4-[2-(morpholin-4-yl)ethoxy]phenyl}acetyl)-7-{[(3S)-3-(piperidin-1-ylmethyl)-3,4-dihydro-1H-isoquinolin-2-yl]carbonyl}-3,4-dihydro-1H-isoquinolin-6-yl]-N-(4-hydroxyphenyl)-N-(6-methoxypyridin-3-yl)-1,2-dimethylpyrrole-3-carboxamide] | 21.1 | 9.10 | 9.89 | 8.00 | 277.8 | 0.0092 | 9.0393 | 0.0828 | 10.40
Cc1c(N(C(=O)c2cc(-c3cc4c(cc3C(=O)N3Cc5ccccc5C[C@H]3CN3CCCCC3)CN(C(=O)Cc3ccc(OCCN5CCOC[C@H]5C)cc3F)CC4)n(C)c2C)c2ccc(O)cc2)cc(C#N)n1C [Example 166, N-(5-cyano-1,2-dimethylpyrrol-3-yl)-5-{2-[2-(2-fluoro-4-{2-[(3R)-3-methylmorpholin-4-yl]ethoxy}phenyl)acetyl]-7-{[(3S)-3-(piperidin-1-ylmethyl)-3,4-dihydro-1H-isoquinolin-2-yl]carbonyl}-3,4-dihydro-1H-isoquinolin-6-yl}-N-(4-hydroxyphenyl)-1,2-dimethylpyrrole-3-carboxamide] | 5.8 | 9.52 | 9.80 | 8.57 | 62.8 | 0.0045 | 6.5639 | 0.0298 | 10.40
COc1ccc(N(C(=O)c2cc(-c3cc4c(cc3C(=O)N3Cc5ccccc5C[C@H]3CN3CCCCC3)CN(C(=O)Cc3ccc(OCCN5CCOCC5)cc3F)CC4)n(C)c2C)c2ccc(O)cc2)cc1C#N [Example 167, N-(3-cyano-4-methoxyphenyl)-5-[2-(2-{2-fluoro-4-[2-(morpholin-4-yl)ethoxy]phenyl}acetyl)-7-{[(3S)-3-(piperidin-1-ylmethyl)-3,4-dihydro-1H-isoquinolin-2-yl]carbonyl}-3,4-dihydro-1H-isoquinolin-6-yl]-N-(4-hydroxyphenyl)-1,2-dimethylpyrrole-3-carboxamide] | 6.5 | 9.52 | 9.82 | 8.08 | 171.4 | 0.0078 | 8.5769 | 0.0669 | 10.30
